Assay results published in patent publication US20120035260A1, “TELLURIUM-CONTAINING COMPOUNDS FOR AFFECTING FEMALE'S REPRODUCTIVE SYSTEM FOLLOWING CHEMOTHERAPY AND/OR RADIOTHERAPY” (BIOMAS LTD., priority 2009, published 2012).

Key:
ovarian follicles [1] = format: in vivo
Protocol: Follicular apoptosis was visualized using the TUNEL staining of ovaries from additional group of mice sacrificed at 12, 24 and 48 hours after a single injection of 150 mg/kg Cy.

ovarian follicles [2] = format: in vivo, female Balb/c mice; conditions: single 75, 100 or 150 mg/kg Cy or 4 weekly 75 mg/kg Cy, AS101 as co-treatment with Cy; for ratio of primary follicles relative to primordial follicles: FIG. 3A; for ratio of secondary follicles relative to primordial follicles: FIG. 3B
Protocol: (§1) 6 week old female Balb/c mice were divided randomly into 4 groups. The mice in the treatment groups received cyclophosphamide (Cy) with or without co-treatment with AS101. Control mice received injections of phosphate buffer saline (PBS) or AS101. Cy treatment consisted of a single intraperitoneal injection of 75, 100 or 150 mg/kg Cy, or 4 weekly injections of 75 mg/kg Cy. AS101 was injected at a dose of 10 mg/kg every other day starting 1 week prior to Cy administration until 1 week after the last administration of Cy. PBS was injected on the same days as described for AS101.
(§2) Both ovaries were removed 7 days after the last Cy administration treatment, and fixed in 4% paraformaldehyde in PBS. The ovaries were embedded in paraplast and serially sectioned to 5 μm slices, and stained with haematoxylin/eosin. Care was taken to ensure that both ovaries were removed from each mouse in their entirety for histological processing. Primordial, primary and secondary follicles were counted by two blinded examiners who were unaware of the treatments, using a light microscope (AxioImager Z1, Zeiss, Oberkochen, Germany) in bright-field mode using a X20 objective. To avoid counting the same follicle twice, only one section in each set of five consecutive sections was used. The relative distribution of different stages of early follicle growth was then calculated.
(§3) Follicles were classified as primordial follicles (PMF) if they contained an oocyte surrounded by a partial or complete layer of squamous pregranulosa cells without a theca layer. In this species, PMF are located almost exclusively in the ovarian cortex, and they are very small (about 15 μm diameter). The follicular count of each follicle type was then multiplied by 5 to reach a representative of total follicles [Meirow et al., Hum Reprod 1999; 14:1903-1907]. The data from follicular count is presented as the percentage of the count obtained from the PBS-treated control group.
The populations of primary follicles, secondary follicles and primordial follicles (PMF) were characterized following single injections of 75, 100 or 150 mg/kg Cy or 4 weekly injections of 75 mg/kg Cy.

[3] = cancer patients, AS101 in combination with chemotherapy; cited from earlier work
[4] = cited from earlier work
tumor = conditions: cited from earlier work
[5] = system: anti-Mullerian hormone (AMH); experiment: Plasma anti-Mullerian hormone (AMH) levels by ELISA; format: in vivo, female Balb/c mice; conditions: 4 weekly injections of 75 mg/kg Cy; control (PBS) group 10.7±2.1 ng/ml
Protocol: as §1
Anti-Mullerian hormone (AMH) levels in the plasma were measured by ELISA techniques according to the manufacturer instruction (DSL, Webster, Tex.).
Mice were administered PBS, AS101, Cy or Cy+AS101 for 4 weeks, as described hereinabove.

[6] = system: ovarian primordial follicles (PMF); experiment: Primordial follicle (PMF) counts in ovaries of cyclophosphamide-treated mice; format: in vivo, female Balb/c mice; conditions: AS101 10 mg/kg every other day where co-treated; for ovarian PMF count, % of that of the control (PBS) group: ovaries removed 7 days after Cy
Protocol: as §1, §2, §3
Student's T-test was performed to assess the differences between groups. Statistical significance was determined at p<0.05.

SMILES	TUNEL staining of ovary, follicle appearance (ovarian follicles [1]; co-therapy with a chemotherapeutic agent and AS101, FIG. 5C)	apoptotic (TUNEL) stain in primordial follicles (ovarian follicles [1]; ovary treated with AS101, FIG. 5B)	ratio of primary follicles relative to primordial follicles (ovarian follicles [2])	ratio of secondary follicles relative to primordial follicles (ovarian follicles [2])	severity of neutropenia, thrombocytopenia and alopecia that accompany chemotherapy [3]	survival of mice ([4]; mice treated with various cytotoxic drugs or radiation)	protection from hematopoietic damage ([4]; mice, lethal and sublethal doses of chemotherapeutic drugs, including cyclophosphamide)	effect in combination with Cy (tumor; treatment of tumor-bearing mice)	anti-tumoral effect (tumor; variety of tumor models in mice and humans)	apoptotic (TUNEL) staining in granulosa cells of growing follicles (ovarian follicles [1]; 24 hours after a single treatment with 150 mg/kg Cy, FIG. 5A)	plasma AMH levels [5] [ng/mL]	PMF count, % of that of the control group ([6]; 75 mg/kg Cy once a week for 4 weeks, ovaries removed 7 days after last Cy)	ovarian PMF count, % of that of the control (PBS) group ([6]; single i.p. injection of 75 mg/kg Cy)	ovarian PMF count, % of that of the control (PBS) group ([6]; single i.p. injection of 100 mg/kg Cy)	ovarian PMF count, % of that of the control (PBS) group ([6]; single i.p. injection of 150 mg/kg Cy)
Cl[TeH]1(Cl)(Cl)OCCO1 [AS101, ammonium trichloro(dioxyethylene-O,O′)tellurate]	follicles destroyed by chemotherapy as well as healthy primordial follicles of ovary are observed	no apoptotic stain was detected	prevented the Cy-induced increase in these ratios	prevented the Cy-induced increase in these ratios	significant reduction in the severity	increase the survival of mice	protect mice from hematopoietic damage	synergistic effect with Cy	exhibits an anti-tumoral effect						
O=P1(N(CCCl)CCCl)NCCCO1 (centres unmarked) [Cy, cyclophosphamide]			increased the ratio	increased the ratio						extensive apoptotic staining	7.2 ± 1.9	12.2%±9.5%	52.1%±15.1%	48%±12.6%	38%±22.2%
